Measurements from BindingDB's records for doi:10.1016/j.bmc.2020.115887 (Duquesne University, 2021).

Assay: Inhibition of beta3 Tubulin (unknown origin) expressed in human HeLa cell line assessed as inhibition of cell proliferation measured after 48 hrs by SRB method

IC50	Compound
0.0096 µM	COc1ccc(N(C)c2nc(C)nc3c2CCC3)cc1
0.18 µM	COc1ccc(N(C)c2nc(C)nc3c2CCC3)c2ccccc12
0.043 µM	COc1cccc2cc(N(C)c3ncnc4c3CCC4)ccc12
0.0096 µM	COc1cccc2cc(N(C)c3nc(N)nc4c3CCC4)ccc12
